Source: PMC10819771 (Pharmaceuticals, 2023)
Where two headings read alike, the source gives them in different places.

Legend:
SiHa = test: MTT antiproliferative assay, SiHa; format: cell-based, human; conditions: for IC50: Homo sapiens, SiHa, MTT, 72 h, cervical cancer cells, read-out: IC50 Values (μM) ± SEM SiHa; for Selectivity Index HEK293/SiHa: IC50 HEK293 / IC50 SiHa
Procedure, shortened: (§1)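 Cells seeded 5000/well, treated next day with compounds at 0.1–30.0 µM (six concentrations) for 72 h at 37 °C, 5% CO2 in MEM with 10% FBS. MTT added for 4 h, formazan dissolved in DMSO, absorbance read at 545 nm versus untreated controls; at least two independent runs, 5 parallel wells.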

FdxT = test: FRET-melting, duplex control FdxT; format: binding; conditions: ligand 2 μM, DNA 0.2 μM, 10 mM KCl, 90 mM LiCl, pH 7.2, hairpin duplex
[1] = test system: 24TTG (DNA, G4) TTGGGTTAGGGTTAGGGTTAGGGA; test: native ESI-MS; conditions: 100 mM NH4+ (ammonium acetate), pH 6.8, 10 µM DNA, 20 µM ligand, first of two successive steps
ds26 = test: Native electrospray mass spectrometry, duplex control ds26; format: binding; conditions: 10 µM DNA, 20 µM ligand; for Bound DNA (%) ds26: 100 mM ammonium acetate, hairpin duplex control
Method: (§2) These parameters ensured a good signal intensity without disrupting noncovalent complexes, which was verified using d[G4T4G4]2 as a control. Oligonucleotides were purchased lyophilized, and RP-cartridge purified from Eurogentec (Kanaka Eurogentec, Seraing, Belgium), then buffer exchanged with ammonium acetate (5 M; Sigma-Aldrich, Saint-Quentin-Fallavier, France) using Amicon Ultra (3 K cut-off; Merck Millipore, Cork, Ireland). Sample solutions were prepared by diluting the proper volume of oligonucleotide stock solutions to reach 10 µM of DNA and 20 µM of ligand, in 100 mM ammonium acetate. The solutions were incubated for 16 h at 4 °C before analysis. Kd were calculated as already described.

[2] = test system: human telomeric sequence 24TTG; test: Native electrospray mass spectrometry, 24TTG; format: binding; conditions: 10 µM DNA, 20 µM ligand; for Bound DNA (%) 24TTG: 100 mM ammonium acetate
Method: as §2

telomerase = test: Telomerase activity (TRAP assay) in MCF-7 cell lysates; format: biochemical, human; conditions: MCF-7 cell lysate
Method: Telomerase activity was assessed using the TRAP assay kit (TRAPeze® RT telomerase detection kit, Chemicon, Millipore Sigma S7700, Merck KGaA, Darmstadt, Germany) according to manufacturer’s instructions with some modifications. Briefly, […] in CHAPS lysis buffer and proteins were extracted. Protein extracts and various concentrations of compounds (0 to 5 µM) were used to extend a synthetic telomeric DNA using an enzymatic reaction (30 °C during 20 min), followed by a quantification of telomeric DNA using a telomeric PCR amplification: 95 °C for 3 min, 2 cycles of 95 °C for 20 s, and 49 °C for 20 s, followed by 30 cycles 95 °C for 20 s and 60 °C for 20 s with signal acquisition) in a Stratagene Mx3005P system (Agilent, Les Ulis, France) using specific telomeric PCR quantitative primers. Each sample was measured in technical duplicate with control DNA. For each drug and each dilution, we used biological triplicate of cell lysates.

HeLa = test: MTT antiproliferative assay, HeLa; format: cell-based, human; conditions: for IC50: Homo sapiens, HeLa, MTT, 72 h, cervical cancer cells, read-out: IC50 Values (μM) ± SEM HeLa; for Selectivity Index HEK293/HeLa: IC50 HEK293 / IC50 HeLa
Procedure, shortened: as §1

HEK293 = test: MTT proliferation test on normal cells, HEK293; format: cell-based; conditions: Homo sapiens, normal epithelial cells, cytotoxicity, read-out: IC50 Values (μM) ± SEM HEK293
Method: The MTT proliferation test on the epithelial cell line HEK293 was performed as pre-viously described. The 50% inhibiting concentrations (IC50) were determined by linear regression analysis.

[3] = test system: FK-RAST (DNA, G4) AGGGCGGTGTGGGAAGAGGGA; test: FRET melting; conditions: 10 mM K+, 90 mM Li+; 10 mM lithium cacodylate pH 7.2; 0.2 µM DNA, 2 µM compound
[4] = test system: FBCL-2T (DNA, G4) GGGCGCGGGAGGAAGGGGGCGGG; test: FRET melting; conditions: 10 mM K+, 90 mM Li+; 10 mM lithium cacodylate pH 7.2; 0.2 µM DNA, 2 µM compound
[5] = test system: Fc-MYCT (DNA, G4) GGGTGGGTAGGGTGGGTAA; test: FRET melting; conditions: 1 mM K+, 99 mM Li+ (table footnote says 10 mM KCl, 90 mM LiCl); 10 mM lithium cacodylate pH 7.2; 0.2 µM DNA, 2 µM compound
[6] = test system: FdxT (DNA, hairpin, hexaethylene glycol linker between 10 and 11) TATAGCTATATATAGCTATA; test: FRET melting; conditions: 10 mM K+, 90 mM Li+; 10 mM lithium cacodylate pH 7.2; 0.2 µM DNA, 2 µM compound
[7] = first binding event, read-out: Kd1 ds26
[8] = second binding event, read-out: Kd2 ds26
[9] = first binding event (1:1 complex), read-out: Kd1 24TTG
[10] = second binding event (2:1 complex), read-out: Kd2 24TTG

| SMILES | IC50 (SiHa) [µM] | Selectivity Index HEK293/SiHa (SiHa) | ΔT1/2 (°C) FdxT (FdxT) [°C] | Bound DNA (%) ds26 (ds26) [%] | Kd (ds26; [7]) [µM] | Kd (ds26; [8]) [µM] | Bound DNA (%) 24TTG [2] [%] | Kd [2, 9] [µM] | Kd [2, 10] [µM] | IC50 (HeLa) [µM] | Selectivity Index HEK293/HeLa (HeLa) | IC50 (HEK293) [µM] | ΔT1/2 [4] [°C] | other results |
| --- | --- | --- | --- | --- | --- | --- | --- | --- | --- | --- | --- | --- | --- | --- |
| CN(C)CCCNCc1ccc(-c2nc(-c3ccc(CNCCCN(C)C)cc3)c3cc(-c4ccccc4)ccc3n2)cc1 [Compound 12b, 2,4-bis{4-[(3-dimethylaminopropyl)aminomethyl]phenyl}-6-phenylquinazoline] | 1.08 ± 0.1 | >27.8 | 0.4 ± 0.3 | 48 | 17 | 130 | 77 | 9.5 | 1.5 | 0.82 ± 0.31 | >36.6 | > 30 |  | Kd1 ([1]; Kd2 1.5, cooperative): 9.5 µM; telomerase activity compared to control (telomerase; 5 µM compound): reduced drastically; concentration from which MCF-7 telomerase activity is decreased (telomerase; 0 to 5 µM tested): 0.5 µM |
| CN1CCN(CCCCNCc2ccc(-c3nc(-c4ccc(CNCCCCN5CCN(C)CC5)cc4)c4cc(-c5ccccc5)ccc4n3)cc2)CC1 [Compound 12e, 2,4-bis{4-[(4-(4-methylpiperazin-1-yl)butyl)aminomethyl]phenyl}-6-phenylquinazoline] | 0.63 ± 0.05 |  | 5.4 ± 1.6 | 36 | 30 | 280 | 72 | 14 | 1.9 | 1.27 ± 0.02 |  |  | 22.7 ± 0.4 | ΔT1/2 [3]: 33.1 ± 2.1 °C; Kd1 ([1]; Kd2 1.9, cooperative): 14 µM; ΔT1/2 [5]: 19.5 ± 1.0 °C; ΔT1/2 [6]: 5.4 ± 1.6 °C |
| CN(C)CCCNCc1ccc(-c2cc(-c3ccc(CNCCCN(C)C)cc3)c3cc(-c4ccccc4)ccc3n2)cc1 [Compound 13a, 2,4-bis{4-[(3-dimethylaminopropyl)aminomethyl]phenyl}-6-phenylquinoline] | 0.99 ± 0.15 | >30.3 | 0.4 ± 0.1 | 53 | 14 | 95 | 81 | 3.7 | 7.1 | 0.5 ± 0.01 | >60.0 | > 30 |  | Kd1 ([1]; Kd2 7.1): 3.7 µM |
| CN1CCN(CCCCNCc2ccc(-c3cc(-c4ccc(CNCCCCN5CCN(C)CC5)cc4)c4cc(-c5ccccc5)ccc4n3)cc2)CC1 [Compound 13d, 2,4-bis{4-[(4-(4-methylpiperazin-1-yl)butyl)aminomethyl]phenyl}-6-phenylquinoline] | 1.11 ± 0.37 |  | 0.8 ± 0.2 | 18 | 85 | 460 | 39 | 29 | 83 | 2.27 ± 0.89 |  |  | 5.0 ± 1.1 | Kd1 ([1]; Kd2 83): 29 µM |
